This is an account of results in patent US9624200B2, “Therapeutic piperazines” (DART NEUROSCIENCE (CAYMAN) LTD., priority 2006, dated 2017).

The test deals with PDE4 from human U-937 cells. Put plainly: PDE4 Inhibition Assay. The format is biochemical. The conditions noted are these: 1 μM cAMP, [3H]-cAMP, read-out: Potency Class (Inhibitory Concentration) in the PDE4 assay. The method, then:
PDE4 from human U-937 cells was used (see T. J. Torphy, et al., J. Pharmacol. Exp. Ther., 1992, 263, 1195-1205). Test compound at various concentration and/or vehicle was preincubated with 2 μg/ml enzyme in Tris-HCl buffer pH 7.5 for 15 minutes at 25° C. The reaction was initiated by addition of 1 1 μM cAMP and 0.01 1 μM [^3H]-cAMP for another 20 minute incubation period and terminated at 100° C. The resulting [^3H]-AMP was converted to [^3H]-adenosine by addition of snake venom nucleotidase and separated by AG1-X2 resin. An aliquot was removed and counted to determine the amount of [^3H]-adenosine formed. Results were converted to percent inhibition and IC so determined using XLfit from IDBS (ID Business Solutions Ltd., 2 Occam Court, Surrey Research Park, Guildford, Surrey, GU2 7QB UK).
Representative compounds of the present invention were tested and found to have significant PDE4 inhibition in this assay.

Turning to `COc1ccc(N2CCN(C(=O)Cc3nc(N)n[nH]3)[C@@H](Cc3ccccc3)C2)cc1OC(C)C` [Compound 337, (S)-2-(3-amino-1H-1,2,4-triazol-5-yl)-1-(2-benzyl-4-(3-isopropoxy-4-methoxyphenyl)piperazin-1-yl)ethanone], the IC50 is under 0.2 µM.

For `COc1ccc(N2CCN(C(=O)Cc3cc(C)[nH]n3)[C@@H](Cc3ccccc3)C2)cc1OC1CCCC1` [Compound 305, (S)-1-(2-benzyl-4-(3-(cyclopentyloxy)-4-methoxyphenyl)piperazin-1-yl)-2-(5-methyl-1H-pyrazol-3-yl)ethanone], the IC50 was under 0.2 µM.

As for `COc1ccc(N2CCN(C(=O)Cc3c[nH]cn3)[C@@H](CC(C)C)C2)cc1OC(C)C` [Compound 378, (S)-2-(1H-imidazol-4-yl)-1-(2-isobutyl-4-(3-isopropoxy-4-methoxyphenyl)piperazin-1-yl)ethanone], the IC50 fell in the range of 0.2 to 1 µM.

In the case of `COc1ccc(N2CCN(C(=O)C3CNC(=O)C3)[C@@H](Cc3ccccc3)C2)cc1OC1CCCC1` (stereo partly drawn) [Compound 299, 4-((S)-2-benzyl-4-(3-(cyclopentyloxy)-4-methoxyphenyl)piperazine-1-carbonyl)pyrrolidin-2-one], the IC50 is 0.2 to 1 µM.

`COc1ccc(N2CCN(C(C)=O)[C@@H](CN3Cc4ccccc4C3)C2)cc1OC1CCCC1` [Compound 252, (S)-1-(4-(3-(cyclopentyloxy)-4-methoxyphenyl)-2-(isoindolin-2-ylmethyl)piperazin-1-yl)ethanone]: the IC50 is 0.2 to 1 µM.

For `COc1ccc(N2CCN(C(=O)Cc3cncn3C)[C@@H](Cc3ccccc3)C2)cc1OC1CCCC1` [Compound 318, (S)-1-(2-benzyl-4-(3-(cyclopentyloxy)-4-methoxyphenyl)piperazin-1-yl)-2-(1-methyl-1H-imidazol-5-yl)ethanone], the IC50 was in the range of 0.2 to 1 µM.

For the compound `COc1ccc(N2CCN(C(=O)Cc3cnc[nH]3)[C@@H](Cc3ccccc3)C2)cc1OC(C)C` [Compound 327, (S)-1-(2-benzyl-4-(3-isopropoxy-4-methoxyphenyl)piperazin-1-yl)-2-(1H-imidazol-5-yl)ethanone], the IC50 was under 0.2 µM.

Regarding `COc1ccc(N2CCN(CC(N)=O)[C@@H](Cc3ccccc3)C2)cc1OC(F)F` [Compound 271, (S)-2-(2-benzyl-4-(3-(difluoromethoxy)-4-methoxyphenyl)piperazin-1-yl)acetamide], the IC50 is 0.2 to 1 µM.

`COc1ccc(N2CCN(C(=O)Cc3ncccn3)[C@@H](Cc3ccccc3)C2)cc1OC1CCC1` [Compound 340, (S)-1-(2-benzyl-4-(3-cyclobutoxy-4-methoxyphenyl)piperazin-1-yl)-2-(pyrimidin-2-yl)ethanone]: the IC50 is under 0.2 µM.

Turning to `COc1ccc(N2CCN(C(=O)Cc3c[nH]cn3)[C@@H](Cc3ccccc3)C2)cc1OC1CCC1` [Compound 303, (S)-1-(2-benzyl-4-(3-cyclobutoxy-4-methoxyphenyl)piperazin-1-yl)-2-(1H-imidazol-4-yl)ethanone], the IC50 was under 0.2 µM.

For the compound `COc1ccc(N2CCN(C(=O)Cc3ccccn3)[C@@H](Cc3ccccc3)C2)cc1OC1CCC1` [Compound 342, (S)-1-(2-benzyl-4-(3-cyclobutoxy-4-methoxyphenyl)piperazin-1-yl)-2-(pyridin-2-yl)ethanone], the IC50 is under 0.2 µM.

`COc1ccc(N2CCN(Cc3sc(C)nc3C)[C@@H](Cc3ccccc3)C2)cc1OC1CCCC1` [Compound 359, (S)-5-((2-benzyl-4-(3-(cyclopentyloxy)-4-methoxyphenyl)piperazin-1-yl)methyl)-2,4-dimethylthiazole]: the IC50 is over 1 µM.

`COc1ccc(N2CCN(C(=O)[C@H]3C[C@H](O)CN3)[C@@H](Cc3ccccc3)C2)cc1OC1CCCC1` [Compound 278, ((S)-2-benzyl-4-(3-(cyclopentyloxy)-4-methoxyphenyl)piperazin-1-yl)((2R,4S)-4-hydroxypyrrolidin-2-yl)methanone]: the IC50 is over 1 µM.

Turning to `CCOc1ccc(N2CCN(C(=O)Cc3n[nH]c(C)n3)[C@@H](Cn3cccn3)C2)cc1OC1CCCC1` [Compound 257], the IC50 was under 0.2 µM.
